Structures can show the parent of a compound that is named as a salt.
Molecular target: T1, human-detived receptor TLR8 (Homo sapiens, UniProt Q9NR97)
T1 construct: host or cells: HEK-Blue hTLR8 cells (HEK293-derived reporter line)
T1 sequence (Q9NR97 27-1041): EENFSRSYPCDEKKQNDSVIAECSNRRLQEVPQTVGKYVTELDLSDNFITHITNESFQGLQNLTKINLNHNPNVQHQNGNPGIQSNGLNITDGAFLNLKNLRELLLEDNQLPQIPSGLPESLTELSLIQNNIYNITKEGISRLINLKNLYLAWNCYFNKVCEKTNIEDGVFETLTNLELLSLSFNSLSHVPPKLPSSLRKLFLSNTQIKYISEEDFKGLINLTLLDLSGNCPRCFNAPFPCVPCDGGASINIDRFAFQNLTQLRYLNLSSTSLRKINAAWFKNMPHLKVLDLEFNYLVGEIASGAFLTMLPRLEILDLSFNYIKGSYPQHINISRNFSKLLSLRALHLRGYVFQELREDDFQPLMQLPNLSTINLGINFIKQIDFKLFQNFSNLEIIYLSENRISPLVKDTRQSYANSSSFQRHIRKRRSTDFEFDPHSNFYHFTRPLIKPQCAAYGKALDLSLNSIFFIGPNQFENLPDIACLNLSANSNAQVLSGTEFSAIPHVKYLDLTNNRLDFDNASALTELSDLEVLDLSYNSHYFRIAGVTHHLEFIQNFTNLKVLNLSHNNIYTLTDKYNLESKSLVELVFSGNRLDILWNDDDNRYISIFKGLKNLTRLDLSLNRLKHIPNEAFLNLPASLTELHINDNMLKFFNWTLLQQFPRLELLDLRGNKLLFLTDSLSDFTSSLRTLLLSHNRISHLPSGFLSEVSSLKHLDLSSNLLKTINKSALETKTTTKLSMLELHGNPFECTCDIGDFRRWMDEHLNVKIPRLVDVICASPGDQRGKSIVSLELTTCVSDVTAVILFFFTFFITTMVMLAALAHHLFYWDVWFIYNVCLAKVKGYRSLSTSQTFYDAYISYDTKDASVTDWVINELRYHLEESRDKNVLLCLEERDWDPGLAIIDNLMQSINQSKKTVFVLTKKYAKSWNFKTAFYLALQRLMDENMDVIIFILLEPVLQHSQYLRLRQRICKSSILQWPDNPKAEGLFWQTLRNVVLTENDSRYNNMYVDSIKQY
Assay: Assay on agonistic activity for human-detived receptor TLR8 (HEK-Blue hTLR8 cells, HEK-Blue Detection Medium)
Type: cell-based
Conditions: 16 h incubation, absorbance at 620 nm
Protocol: The assay on the agonistic activity for human-detived receptor TLR7 was performed as that in Test Example 1; • the method for assaying the agonistic activity for the human-detived receptor TLR8 was as follows: HEK-Blue™ hTLR8 cells (InvivoGen, hkb-htlr8) were cultured in a DMEM complete medium (Gibco, 11965-092) containing 10% FBS (Invitrogen, 10099-141c), 1% P/S (Invitrogen, 15140-122), 10 μg/mL Blasticidin (InvivoGen, R210-01), 100 μg/mL Zeocin (InvivoGen, ant-zn), and 100 μg/mL Normocin (InvivoGen, Ant-nr-2). The cells were cultured in an incubator at 37° C. with 5% CO2. When HEK-Blue™ hTLR8 cells reached a growth density of 70%-80%, cell passage was needed.
The agonistic activity for the human-detived receptor TLR8 by HEK-Blue™ hTLR8 cells was assayed by HEK-Blue™ Detection Medium (InvivoGen, hb-det3). First, a bag of HEK-Blue™ Detection Medium powder was completely dissolved, and then filtered through a 0.22 μm filter. Antibiotics were then added until the final concentration was 1% P/S and 100 μg/mL Normocin. HEK-Blue™ Detection Medium was pre-heated to 37° C. in advance on the day of the assay on the activity for the TLR8 receptor, and the temperature was always maintained at 37° C.
The compound powder was dissolved in 100% DMSO (Sigma, D8418-1L) to obtain a 10 mM stock solution, and the compound was completely dissolved by shaking with an oscillator for later use.
The cell culture medium was removed from HEK-Blue™ hTLR8 cells with a growth density of 70-80%. Then, the cells were washed 2-3 times with PBS (Gibco, 10010-031). The cells were digested and then pipetted with a DMEM cell culture medium to a single cell suspension, which was then centrifuged at 1000 rpm for 10 min to collect the cell pellet. […] The cells were counted, diluted to a plating density, and transferred to a 384-well cell culture plate (Corning, 3764). […] After incubation in an incubator at 37° C. for 16 h, the absorbance was read at 620 nm using a microplate reader (PerkinElmer, VICTOR Nivo).
The EC50 of the compound was calculated using the GraphPad Prism 8 software (GraphPad Software, USA). The reading of the negative control well (the well without the compound) was subtracted from the absorbance reading at 620 nm of the compound, and was divided by the ratio of the difference between the positive control (1 μM positive compound) and the negative control well, so that the percentage of the ratio of each well to the ratio of the positive control well (the well treated with 10 μM positive compound), i.e., the percentage of activity, was calculated. Finally, the sigmoidal dose-response (variable slope) curve between the percentage of activity and the concentration of the compound was calculated using the software GraphPad Prism to calculate the EC50 of the compound.

Row | EC50 [µM] | SMILES
1 | > 10 | COc1nc2c(N)nc3ccccc3c2n1Cc1ccc(CN2CCCC2)cc1 [Comparative Example 1, 2-methoxy-1-((4-((pyrrolidin-1-yl)methyl)phenyl)methyl)-1H-imidazo[4,5-c]quinolin-4-amine trifluoroacetate, reference compound]
2 | > 10 | CSc1nc2c(N)nc3ccccc3c2n1Cc1ccc(CN2CCCC2)cc1 [Example 40, 2-(methylthio)-1-(4-(pyrrolidin-1-ylmethyl)benzyl)-1H-imidazo[4,5-c]quinoline-4-amine]
3 | > 10 | CSc1nc2c(N)nc3ccccc3c2n1Cc1ccc(N2CCN(C)CC2)nc1 [Example 199]
4 | > 10 | COc1cc(CN(C)C)ccc1Cn1c(SC)nc2c(N)nc3ccccc3c21 [Example 240]

Source: patent US20240150346A1, “CLASS OF HETEROAROMATIC COMPOUND, PREPARATION METHOD THEREFOR AND USE THEREOF” (INNOVSTONE THERAPEUTICS LIMITED, priority 2021, published 2024)
